Some results are limits rather than exact numbers.

In one experiment the target is KRAS G12C (Homo sapiens (Human), UniProt P01116, C118A/G12C). Briefly: 2 h coupled exchange assay. The conditions noted are these: Avg 2 h Coupled exchange IC50, 2 h compound pre-incubation. Format: biochemical. As for the experimental part:
The term “2 h coupled exchange assay” or “20 h coupled exchange assay” as used herein refers to the assay described in the Section entitled “BIOLOGICAL EVALUATION.”

For experiment [1], the system named is MIA PaCa-2 (human pancreatic carcinoma) cells. Briefly: Cell Viability Assay (CellTiter-Glo), MIA PaCa-2. Format: cell-based. As for the experimental part:
Serially-diluted compound or DMSO was added to the cells, and plates were incubated at 37° C., 5% CO2 for 72 h. Cell viability was measured using a CellTiter-Glo® Luminescent Cell Viability Assay kit (Promega) according to the manufacturer's protocol. The luminescence signal of treated samples was normalized to DMSO control, and data were analyzed using a 4-parameter logistic model to calculate IC50 values.
In general terms: Cellular ATP, detected with luciferase, serves as a proxy for viable cell number.

In experiment [2] the test system is A549 (human lung carcinoma) cells. Briefly: Cell Viability Assay (CellTiter-Glo), A549. Format: cell-based. An outline of the steps: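 Luminescent ATP read-out (CellTiter-Glo) after 72 h compound treatment of cells seeded overnight at 1.67E+04 cells/mL in RPMI 1640, 10% FBS; signal relative to DMSO, IC50 by 4-parameter logistic model.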

Chain of KRAS G12C (P01116 other isoform, or with tags, fused parts or gaps G12C/C118A): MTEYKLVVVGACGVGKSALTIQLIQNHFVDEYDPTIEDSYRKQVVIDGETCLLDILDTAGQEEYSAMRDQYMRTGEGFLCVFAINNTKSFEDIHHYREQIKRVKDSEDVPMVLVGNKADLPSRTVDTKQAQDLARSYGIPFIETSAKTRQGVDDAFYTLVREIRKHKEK

Regarding `C=CC(=O)N1CC2(CCN(c3nc4c(c(-c5cc(O)ccc5C)c3C)COC(C)(C)C4)C2)C1` (single isomer, unassigned) [Example 14-31, (M)-1-(6-(4-(5-hydroxy-2-methylphenyl)-3,7,7-trimethyl-7,8-dihydro-5H-pyrano[4,3-b]pyridin-2-yl)-2,6-diazaspiro[3.4]octan-2-yl)-2-propen-1-one], the IC50 (as a rule, the concentration that inhibits the measured activity by half) was 0.106 µM at KRAS G12C; 0.105 µM in experiment [1] (Homo sapiens, MIA PaCa-2, 72 h); above 5 µM in experiment [2] (Homo sapiens, A549, 72 h).

For `C=CC(=O)N1CC2(CCN(c3nc4c(c(-c5c(C)ccc6[nH]ncc56)c3C)COC(C)(C)C4)C2)C1` (single isomer, unassigned) [Example 14-33, (P)-1-(6-(3,7,7-trimethyl-4-(5-methyl-1H-indazol-4-yl)-7,8-dihydro-5H-pyrano[4,3-b]pyridin-2-yl)-2,6-diazaspiro[3.4]octan-2-yl)-2-propen-1-one], the IC50 against KRAS G12C was 0.044 µM; in experiment [1] (Homo sapiens, MIA PaCa-2, 72 h) it was 0.032 µM; in experiment [2] (Homo sapiens, A549, 72 h) it was above 5 µM.

Take `C=CC(=O)N1CC2(CCN(c3nc4c(c(-c5ccc(F)c6sc(N)nc56)c3C)COC(C)(C)C4)C2)C1` (single isomer, unassigned) [Example 14-38, (P)-1-(6-(4-(2-amino-7-fluoro-1,3-benzothiazol-4-yl)-3,7,7-trimethyl-7,8-dihydro-5H-pyrano[4,3-b]pyridin-2-yl)-2,6-diazaspiro[3.4]octan-2-yl)-2-propen-1-one]: the 50% inhibitory concentration (IC50) against KRAS G12C was 0.063 µM; in experiment [1] (Homo sapiens, MIA PaCa-2, 72 h), 0.123 µM; in experiment [2] (Homo sapiens, A549, 72 h), above 5 µM.

`C=CC(=O)N1CC2(CCN(c3nc4c(c(-c5c(C)c(C)cc6cnn(C)c56)c3C)COC(C)(C)C4)C2)C1` (single isomer, unassigned) [Example 14-41, (P)-1-(6-(3,7,7-trimethyl-4-(1,5,6-trimethyl-1H-indazol-7-yl)-7,8-dihydro-5H-pyrano[4,3-b]pyridin-2-yl)-2,6-diazaspiro[3.4]octan-2-yl)-2-propen-1-one]: the half-maximal inhibitory concentration (IC50) is 0.066 µM on KRAS G12C; 0.408 µM in experiment [1] (Homo sapiens, MIA PaCa-2, 72 h); above 5 µM in experiment [2] (Homo sapiens, A549, 72 h).

Turning to `C=CC(=O)N1CC2(CCN(c3nc4c(c(-c5cccc6cc(O)ccc56)c3C)COC(C)(C)C4)C2)C1` (single isomer, unassigned) [Example 14-44, (P)-1-(6-(4-(6-hydroxy-1-naphthalenyl)-3,7,7-trimethyl-7,8-dihydro-5H-pyrano[4,3-b]pyridin-2-yl)-2,6-diazaspiro[3.4]octan-2-yl)-2-propen-1-one], the IC50 at KRAS G12C is 0.071 µM; in experiment [1] (Homo sapiens, MIA PaCa-2, 72 h) it was 0.044 µM; in experiment [2] (Homo sapiens, A549, 72 h), above 5 µM.

For `C=CC(=O)N1CC2(CCN(c3nc4c(c(-c5c(C)ccc6cn[nH]c56)c3C#N)C[C@H]3C[C@@H]4C3(C)C)C2)C1` (single isomer, unassigned) [Example 14-51], the IC50 against KRAS G12C was 0.011 µM; in experiment [1] (Homo sapiens, MIA PaCa-2, 72 h), 0.018 µM; in experiment [2] (Homo sapiens, A549, 72 h), above 5 µM.

Take `C=CC(=O)N1CC2(CCN(c3nc4c(c(-c5ccc(F)c6sc(N)nc56)c3C#N)COC(C)(C)C4)C2)C1` (single isomer, unassigned) [Example 14-57, (P)-4-(2-amino-7-fluoro-1,3-benzothiazol-4-yl)-7,7-dimethyl-2-(2-(2-propenoyl)-2,6-diazaspiro[3.4]octan-6-yl)-7,8-dihydro-5H-pyrano[4,3-b]pyridine-3-carbonitrile]: the IC50 at KRAS G12C is 0.04 µM; in experiment [1] (Homo sapiens, MIA PaCa-2, 72 h), 0.071 µM; in experiment [2] (Homo sapiens, A549, 72 h), above 5 µM.

As to `C=CC(=O)N1CC2(CCN(c3nc4c(c(-c5cc(O)ccc5C)c3F)C[C@H]3C[C@@H]4C3(C)C)C2)C1` (single isomer, unassigned) [Example 14-59], the IC50 is 0.025 µM against KRAS G12C; 0.293 µM in experiment [1] (Homo sapiens, MIA PaCa-2, 72 h); above 5 µM in experiment [2] (Homo sapiens, A549, 72 h).

On to `C=CC(=O)N1CC2(CCN(c3nc4c(c(-c5cc(O)cc6ccccc56)c3F)COC(C)(C)C4)C2)C1` (single isomer, unassigned) [Example 14-70, (P)-1-(6-(3-fluoro-4-(3-hydroxy-1-naphthalenyl)-7,7-dimethyl-7,8-dihydro-5H-pyrano[4,3-b]pyridin-2-yl)-2,6-diazaspiro[3.4]octan-2-yl)-2-propen-1-one], for which the half-inhibitory concentration (IC50) at KRAS G12C was 0.068 µM; in experiment [1] (Homo sapiens, MIA PaCa-2, 72 h) it was 0.082 µM; in experiment [2] (Homo sapiens, A549, 72 h), above 5 µM.

With `C=CC(=O)N1CC2(CCN(c3nc4c(c(-c5c(C)ccc6[nH]ncc56)c3F)C[C@H]3C[C@@H]4C3(C)C)C2)C1` (single isomer, unassigned) [Example 14-73], the concentration for half-maximal inhibition (IC50) against KRAS G12C was 0.01 µM; in experiment [1] (Homo sapiens, MIA PaCa-2, 72 h) it was 0.011 µM; in experiment [2] (Homo sapiens, A549, 72 h) it was above 5 µM.

Turning to `C=CC(=O)N1CC2(CCN(c3nc4c(c(-c5c(C)ccc6cn[nH]c56)c3C#N)COC(C)(C)C4)C2)C1` (single isomer, unassigned) [Example 14-81, (P)-7,7-dimethyl-4-(6-methyl-1H-indazol-7-yl)-2-(2-(2-propenoyl)-2,6-diazaspiro[3.4]octan-6-yl)-7,8-dihydro-5H-pyrano[4,3-b]pyridine-3-carbonitrile], the 50% inhibitory concentration (IC50) was 0.045 µM against KRAS G12C; 0.092 µM in experiment [1] (Homo sapiens, MIA PaCa-2, 72 h); above 5 µM in experiment [2] (Homo sapiens, A549, 72 h).

`C=CC(=O)N1CC2(CCN(c3nc4c(c(-c5c(C)c(Cl)cc6cnn(C)c56)c3C)COC(C)(C)C4)C2)C1` (single isomer, unassigned) [Example 14-89, (P)-1-(6-(4-(5-chloro-1,6-dimethyl-1H-indazol-7-yl)-3,7,7-trimethyl-7,8-dihydro-5H-pyrano[4,3-b]pyridin-2-yl)-2,6-diazaspiro[3.4]octan-2-yl)-2-propen-1-one]: the IC50 against KRAS G12C came out at 0.081 µM; in experiment [1] (Homo sapiens, MIA PaCa-2, 72 h) it was 0.08 µM; in experiment [2] (Homo sapiens, A549, 72 h), 1.8 µM.

For the compound `C=CC(=O)N1CC2(CCN(c3nc4c(c(-c5c(C)ccc6cn[nH]c56)c3C)CC[C@H](c3c(C)cnn3C)C4)C2)C1` (single isomer, unassigned) [Example 14-97], the IC50 against KRAS G12C turned out to be 0.208 µM; in experiment [1] (Homo sapiens, MIA PaCa-2, 72 h), 0.254 µM; in experiment [2] (Homo sapiens, A549, 72 h) it was 10 µM.

Consider `C=CC(=O)N1CC2(CCN(c3nc4c(c(-c5c(C)ccc6cnn(C)c56)c3C)CC[C@@H](c3c(C)cnn3C)C4)C2)C1` (single isomer, unassigned) [Example 14-98], for which the IC50 against KRAS G12C was 0.071 µM; in experiment [1] (Homo sapiens, MIA PaCa-2, 72 h) it was 0.08 µM; in experiment [2] (Homo sapiens, A549, 72 h), above 5 µM.

In the case of `C=CC(=O)N1CC2(CCN(c3nc4c(c(-c5c(C)ccc6cnn(C)c56)c3C)COC(C)(C)C4)C2)C1` (single isomer, unassigned) [Example 14-99, (P)-1-(6-(4-(1,6-dimethyl-1H-indazol-7-yl)-3,7,7-trimethyl-7,8-dihydro-5H-pyrano[4,3-b]pyridin-2-yl)-2,6-diazaspiro[3.4]octan-2-yl)-2-propen-1-one], the half-inhibitory concentration (IC50) at KRAS G12C is 0.071 µM; in experiment [1] (Homo sapiens, MIA PaCa-2, 72 h) it was 0.08 µM; in experiment [2] (Homo sapiens, A549, 72 h), above 5 µM.

On to `C=CC(=O)N1CC2(CCN(c3nc4c(c(-c5cc(O)cc6ccccc56)c3C)COC(C)(C)C4)C2)C1` (single isomer, unassigned) [Example 14-103, (M)-1-(6-(4-(3-hydroxy-1-naphthalenyl)-3,7,7-trimethyl-7,8-dihydro-5H-pyrano[4,3-b]pyridin-2-yl)-2,6-diazaspiro[3.4]octan-2-yl)-2-propen-1-one], for which the IC50 came to 0.045 µM at KRAS G12C; 0.032 µM in experiment [1] (Homo sapiens, MIA PaCa-2, 72 h); 7.62 µM in experiment [2] (Homo sapiens, A549, 72 h).

Consider `C=CC(=O)N1CC2(CCN(c3nc4c(c(-c5cccc6cc(O)ccc56)c3C)CCN(C(C)C)C4)C2)C1` (single isomer, unassigned) [Example 18-4, (P)-1-(6-(4-(6-hydroxy-1-naphthalenyl)-3-methyl-7-(2-propanyl)-5,6,7,8-tetrahydro-1,7-naphthyridin-2-yl)-2,6-diazaspiro[3.4]octan-2-yl)-2-propane-1-one], for which the concentration for half-maximal inhibition (IC50) on KRAS G12C is 0.017 µM; in experiment [1] (Homo sapiens, MIA PaCa-2, 72 h), 0.012 µM; in experiment [2] (Homo sapiens, A549, 72 h) it was above 5 µM.

In the case of `C=CC(=O)N1CC2(CCN(c3nc4c(c(-c5c(C)ccc6[nH]ncc56)c3C)CCN(C(C)C)C4)C2)C1` (single isomer, unassigned) [Example 18-19, (P)-1-(6-(3-methyl-4-(5-methyl-1H-indazol-4-yl)-7-(2-propanyl)-5,6,7,8-tetrahydro-1,7-naphthyridin-2-yl)-2,6-diazaspiro[3.4]octan-2-yl)-2-propane-1-one], the IC50 against KRAS G12C was 0.131 µM; in experiment [1] (72 h) it was 0.056 µM; in experiment [2] (Homo sapiens, A549, 72 h) it was above 25 µM.

For `C=CC(=O)N1CC2(CCN(c3nc4c(c(-c5c(C)ccc6[nH]ncc56)c3C)CCN(C(C)C)C4)C2)C1` (single isomer, unassigned) [Example 18-22, (M)-1-(6-(3-methyl-4-(5-methyl-1H-indazol-4-yl)-7-(2-propanyl)-5,6,7,8-tetrahydro-1,7-naphthyridin-2-yl)-2,6-diazaspiro[3.4]octan-2-yl)-2-propen-1-one], the 50% inhibitory concentration (IC50) against KRAS G12C is 6.88 µM; in experiment [1] (72 h) it was 0.804 µM; in experiment [2] (72 h) it was above 20 µM.

Turning to `C=CC(=O)N1CC2(CCN(c3nc4cc(-c5scnc5C)ccc4c(-c4c(O)cccc4F)c3C#N)C2)C1` (single isomer, unassigned) [Example 19-4, (P)-4-(2-fluoro-6-hydroxyphenyl)-7-(4-methyl-1,3-thiazol-5-yl)-2-(2-(2-propenoyl)-2,6-diazaspiro[3.4]octan-6-yl)-3-quinolinecarbonitrile], the IC50 on KRAS G12C was 0.038 µM; in experiment [1] (72 h) it was 0.695 µM; in experiment [2] (Homo sapiens, A549, 72 h), above 5 µM.

Source of the values: patent US20240059703A1 (AMGEN INC., priority 2021, published 2024).
